In data set [1] the test system is ZR-75-1 cells. In words: Inhibition of cell proliferation (GI50) and cell death (LC50), ZR-75-1. The data set is classed as cell-based. The settings on record: ZR-75-1, 48 h; read-out: GI50 (dose for 50% inhibition of cell proliferation). How it is done:
(§1) T47D, ZR-75-1, PC-3, human prostate cancer cell line DU-145, human non-small cell lung cancer cell line A-549, human small cell lung cancer cell line SHP-77, HL-60 and MRC-5 cells were grown and harvested as in Example 90. […] The samples were mixed by agitation and incubated at 37° C. for 2-4 h in a 5% CO2-95% humidity incubator. […] This determines the possible background absorbance of the test compounds. No absorbance for gambogic acid or its analogs or derivatives was found at 490 nm. After the 2-4 h incubation, the samples were read for absorbance as above (ATest).
(§2) Baseline for GI50 (dose for 50% inhibition of cell proliferation) and LC50 (dose for 50% cell death) of initial cell numbers was determined by adding an aliquot of 90 μl of cells or 90 μl of media, respectively, to wells of a 96-well microtiter plate containing 10 μl of a 10% DMSO in RPMI-1640 media solution. […] The samples were mixed by agitation and incubated at 37° C. for 2-4 h in a 5% CO2-95% humidity incubator. Absorbance was read as above, (AT=0) defining absorbance for initial cell number used as baseline in GI50 determinations and (Amin) defining absorbance for media alone used as baseline in LC50 determinations.
(§3) GI50 (dose for 50% inhibition of cell proliferation)
(§4) LC50 (dose for 50% cell death)
(§5) 50=100×[(ATest−Amin)/(AT=0−Amin)]

The subject of data set [2] is human prostate cancer cell line DU-145. In words: Inhibition of cell proliferation (GI50) and cell death (LC50), DU-145. It counts as cell-based. As to conditions: DU-145, 48 h; read-out: GI50 (dose for 50% inhibition of cell proliferation). As to the method: as §1, §2, §3, §4, §5
Data set [3] relates to PC-3 cells. As to the kind of experiment: Inhibition of cell proliferation (GI50) and cell death (LC50), PC-3. It counts as cell-based. As to conditions: PC-3, 48 h; read-out: GI50 (dose for 50% inhibition of cell proliferation). As to the method: as §1, §2, §3, §4, §5
The test system of data set [4] is MRC-5 cells. As to the kind of experiment: Inhibition of cell proliferation (GI50) and cell death (LC50), MRC-5. The data set is classed as cell-based. The settings on record: MRC-5, 48 h. As to the method:
as §1, §2, §3, §4, §5

Data set [5] has as its system T47D cells. As to the kind of experiment: Morphological change of T47D cells (phase contrast). As to conditions: 2.5 μM. It counts as cell-based, human. As to the method:
In addition, apoptotic adherent cells in culture lose their ability to remain attached to the culture dish. The ability of gambogic acid to trigger these morphological changes in T47D cells was investigated.
60 mm culture dishes were seeded with 750,000 T47D cells and the cultures were incubated under normal growth conditions (complete medium with 10% FBS) for 24 h. The cells were then treated with 2.5 μM of gambogic acid and further incubated under normal growth conditions for 2 or 6 h. Morphological changes were documented by photographing the cells under phase contrast illumination.

Data set [6] has as its system caspase activity, PC-3 cells. In words: Caspase induction and its inhibition by caspase inhibitor (Example 97), PC-3. The data set is classed as cell-based, human. Set-up: key to Inhibition of caspase activity by Inhibitor: The caspase activity detected was inhibited by the caspase inhibitor (+). How it is done:
(§6) T47D, ZR-75, PC3, SHP-77 and A-549 cells were maintained and harvested as described in Example 90. Cells were added to 96-well plates as described in Example 90. The cells were treated with 10 μM gambogic acid, in the presence and in the absence of 10 μM caspase inhibitor cbz-Val-Asp-fmk (Cytovia, Inc.; WO99/18781). The plate was incubated up to 24 h at 37° C in a 5% CO2-95% humidity incubator. Caspase activity was determined by addition of a fluorogenic substrate as described in Example 90.
(§7) Gambogic acid induced caspase activity in a ratio of greater than 2.5 (+) above untreated cell levels in all the tested cancer cell lines (Table IV). The caspase activity detected was inhibited by the caspase inhibitor (+), confirming that the fluorescent signal was due to caspase activity.

In data set [7] the test system is HeLa cells. As to conditions: reported by Asano et al., Phytochemistry 41:815-820 (1996); cited from earlier work.
In data set [8] the test system is poly(ADP)ribose polymerase (PARP) cleavage, HL-60 cells. In words: PARP cleavage western blot, HL-60 cells. As to conditions: 2.5 μM, 2 h (FIG. 5B). It counts as cell-based, human. As to the method:
(§8) Cleavage of the enzyme poly(ADP)ribose polymerase (PARP) by caspase-3 and related proteases is considered to be one of the molecular hallmarks of caspase-mediated apoptosis. Therefore, the ability of gambogic acid to induce PARP cleavage in four different human tumor cell lines (Jurkat cells, HL-60 cells, T47D cells and PC3 cells) was determined.
(§9) Cells were cultured in complete growth medium containing 10% FBS and treated with gambogic acid at concentrations of 2.5 μM or 5 μM for 2 to 4 h. Control cultures were treated with a drug vehicle (DMSO), or the well-characterized apoptosis inducer, staurosporine. At the end of the apoptosis induction period, the cells were harvested, washed once with PBS, quick-frozen on dry ice, and stored at −80° C. The cells were then lysed in a standard immunoblotting lysis buffer and samples of the lysates were electrophoresed on 4% to 20% gradient polyacrylamide gels. The proteins in the gels were then transferred to PVDF membranes and probed with a commercially-available rabbit polyclonal antibody to PARP.
(In general: A western blot detects proteins with antibodies after separation by electrophoresis.)

For data set [9], the system named is KB-V1 cell line. The settings on record: reported by Lin et al., Magn. Reson. Chem. 31:340-347 (1993); cited from earlier work.
Data set [10] has as its system HEL cells. The settings on record: reported by Asano et al., Phytochemistry 41:815-820 (1996); cited from earlier work.
For data set [11], the system named is poly(ADP)ribose polymerase (PARP) cleavage, Jurkat cells. In words: PARP cleavage western blot, Jurkat cells. The data set is classed as cell-based, human. The settings on record: 2.5 μM, 2 h (FIG. 5A). As to the method: as §8, §9
Data set [12] deals with caspase activity, ZR-75 cells. In words: Caspase induction and its inhibition by caspase inhibitor (Example 97), ZR-75. Also on record: key to Inhibition of caspase activity by Inhibitor: The caspase activity detected was inhibited by the caspase inhibitor (+). It counts as cell-based, human. How it is done: as §6, §7
The subject of data set [13] is poly(ADP)ribose polymerase (PARP) cleavage, T47D cells. As to the kind of experiment: PARP cleavage western blot, T47D cells. The data set is classed as cell-based, human. As to the method:
as §8, §9

Data set [14] relates to caspase activity, SHP-77 cells. In words: Caspase induction and its inhibition by caspase inhibitor (Example 97), SHP-77. The data set is classed as cell-based, human. Also on record: key to Inhibition of caspase activity by Inhibitor: The caspase activity detected was inhibited by the caspase inhibitor (+). As to the method: as §6, §7

Here are results for 1 compound from US6613762B2, “Gambogic acid, analogs and derivatives as activators of caspases and inducers of apoptosis” (Cytovia, Inc., priority 1999, dated 2003).

Molecules are shown by their SMILES.

In the case of `CC(C)=CCC[C@]1(C)C=Cc2c(O)c3c(c(CC=C(C)C)c2O1)O[C@]12C(=C[C@@H]4C[C@H]1C(C)(C)O[C@@]2(C/C=C(/C)C(=O)O)C4=O)C3=O` [Example 1, Gambogic Acid], the GI50 in [1] worked out at 400 nM; in data set [2] it was 500 nM; in data set [3] it was 500 nM; in data set [4] (read-out: GI50 (dose for 50% inhibition of cell proliferation)) it was 400 nM. Moreover, in data set [4] (read-out: LC50 (dose for 50% cell death)), the CC50 came to 500 nM. The “Morphological change of T47D cells” value in [5] (2 h (FIG. 1B)) is “many of the cells have taken on a rounded, phase-bright morphology”; in [5] (6 h (FIG. 1C)) it was “most of the cells in the culture are rounded up and are beginning to detach from the dish”. Also, the “Inhibition of caspase activity by Inhibitor” value in data set [6] (PC-3, 10 μM gambogic acid with 10 μM caspase inhibitor cbz-Val-Asp-fmk) is recorded as “+”; in data set [12] (ZR-75, 10 μM gambogic acid with 10 μM caspase inhibitor cbz-Val-Asp-fmk), “+”; in data set [14] (SHP-77, 10 μM gambogic acid with 10 μM caspase inhibitor cbz-Val-Asp-fmk) it was “+”. The Caspase activity entry in [6] (PC-3, 10 μM gambogic acid, up to 24 h) is recorded as “+ (Gambogic acid induced caspase activity in a ratio of greater than 2.5 (+) above untreated cell levels)”; in data set [12] (ZR-75, 10 μM gambogic acid, up to 24 h), “+ (Gambogic acid induced caspase activity in a ratio of greater than 2.5 (+) above untreated cell levels)”; in [14] (SHP-77, 10 μM gambogic acid, up to 24 h), “+ (Gambogic acid induced caspase activity in a ratio of greater than 2.5 (+) above untreated cell levels)”. For the same compound, the “Cytotoxicity to HeLa cells” value in [7] is on record as “cytotoxic”. Further, the PARP cleavage entry in data set [8] is on record as “almost complete PARP cleavage”; in data set [11] it was “almost complete PARP cleavage”; in [13] (2.5 μM and 5 μM, 4 h (FIG. 5C)), “almost complete PARP cleavage”; in [13] (2.5 μM, 2 h (FIG. 5C)), “moderate induction of PARP cleavage”; in [13] (5 μM, 2 h (FIG. 5C)), “almost complete PARP cleavage”. The “Cytotoxicity against KB-V1 cell line” value in data set [9] is “cytotoxic”. Further, in data set [10], the “Cytotoxicity to HEL cells” value was “cytotoxic”.
